According to ChEMBL document CHEMBL1201862, “PubChem BioAssay data set” (2004):
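Cultured in 96-well plates, cells were exposed to test compound for 48 hours across five concentrations. The concentration for 50% growth inhibition is given as GI50.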 Calls of active or inactive are those of the source. Cut-off read from the data, not from the text of the source: active = GI50 up to about 1.1 µM and inactive = higher.

Experiments:
Assay in all cases: NCI-60 cell line screen, 48 h
786-0 = test system: 786-0
A498 = test system: A498
A549 = test system: A549
ACHN = test system: ACHN
BT-549 = test system: BT-549
CAKI-1 = test system: CAKI-1
CCRF-CEM = test system: CCRF-CEM
COLO 205 = test system: COLO 205
DU-145 = test system: DU-145
EKVX = test system: EKVX
HCC 2998 = test system: HCC 2998
HCT-116 = test system: HCT-116
HCT-15 = test system: HCT-15
HL-60 = test system: HL-60
HOP-62 = test system: HOP-62
HOP-92 = test system: HOP-92
HT-29 = test system: HT-29
Hs-578T = test system: Hs-578T
IGROV-1 = test system: IGROV-1
K562 = test system: K562
KM12 = test system: KM12
LOX IMVI = test system: LOX IMVI
M14 = test system: M14
MCF7 = test system: MCF7
MDA-MB-231 = test system: MDA-MB-231
MDA-MB-435 = test system: MDA-MB-435
MDA-N = test system: MDA-N
MOLT-4 = test system: MOLT-4
Malme-3M = test system: Malme-3M
NCI-H226 = test system: NCI-H226
NCI-H23 = test system: NCI-H23
NCI-H460 = test system: NCI-H460
NCI-H522 = test system: NCI-H522
NCI/ADR-RES = test system: NCI/ADR-RES
OVCAR-3 = test system: OVCAR-3
OVCAR-4 = test system: OVCAR-4
OVCAR-5 = test system: OVCAR-5
OVCAR-8 = test system: OVCAR-8
PC-3 = test system: PC-3
RPMI-8226 = test system: RPMI-8226
RXF 393 = test system: RXF 393
SF-268 = test system: SF-268
SF-295 = test system: SF-295
SF-539 = test system: SF-539
SK-MEL-28 = test system: SK-MEL-28
SK-MEL-2 = test system: SK-MEL-2
SK-MEL-5 = test system: SK-MEL-5
SK-OV-3 = test system: SK-OV-3
SN12C = test system: SN12C
SNB-19 = test system: SNB-19
SNB-75 = test system: SNB-75
SW-620 = test system: SW-620
T47D = test system: T47D
TK-10 = test system: TK-10
U-251 = test system: U-251
UACC-257 = test system: UACC-257
UACC-62 = test system: UACC-62
UO-31 = test system: UO-31
SR = test system: SR

Cc1c2c(c(C)c3c[n+](C)ccc13)Oc1ccccc1O2
GI50 (786-0): 6.62 µM (inactive)
GI50 (A498): 28.6 µM (inactive)
GI50 (A549): 1.84 µM (inactive)
GI50 (ACHN): 34.9 µM (inactive)
GI50 (BT-549): 2.67 µM (inactive)
GI50 (CAKI-1): > 67.5 µM (inactive)
GI50 (CCRF-CEM): 3.87 µM (inactive)
GI50 (COLO 205): 6.34 µM (inactive)
GI50 (DU-145): 22.9 µM (inactive)
GI50 (EKVX): 9.44 µM (inactive)
GI50 (HCC 2998): 6.56 µM (inactive)
GI50 (HCT-116): 22.8 µM (inactive)
GI50 (HCT-15): > 62.2 µM
GI50 (HL-60): 13.3 µM (inactive)
GI50 (HOP-62): 8.89 µM (inactive)
GI50 (HOP-92): 34.8 µM (inactive)
GI50 (HT-29): 20 µM (inactive)
GI50 (Hs-578T): 3.13 µM (inactive)
GI50 (IGROV-1): 13.9 µM (inactive)
GI50 (K562): 3.59 µM (inactive)
GI50 (KM12): 0.82 µM (active)
GI50 (LOX IMVI): 22.3 µM (inactive)
GI50 (M14): 18.2 µM (inactive)
GI50 (MCF7): 9.12 µM (inactive)
GI50 (MDA-MB-231): 24.6 µM (inactive)
GI50 (MDA-MB-435): 15.1 µM (inactive)
GI50 (MDA-N): 18.6 µM (inactive)
GI50 (MOLT-4): 3.02 µM (inactive)
GI50 (Malme-3M): 2.56 µM (inactive)
GI50 (NCI-H226): 5.66 µM (inactive)
GI50 (NCI-H23): 6.9 µM (inactive)
GI50 (NCI-H460): 3.4 µM (inactive)
GI50 (NCI-H522): 4.42 µM (inactive)
GI50 (NCI/ADR-RES): > 100 µM (inactive)
GI50 (OVCAR-3): 3.17 µM (inactive)
GI50 (OVCAR-4): 9.42 µM (inactive)
GI50 (OVCAR-5): 18.2 µM (inactive)
GI50 (OVCAR-8): 6.05 µM (inactive)
GI50 (PC-3): 16.3 µM (inactive)
GI50 (RPMI-8226): 1.88 µM (inactive)
GI50 (RXF 393): 34.7 µM (inactive)
GI50 (SF-268): 1.64 µM (inactive)
GI50 (SF-295): 5.69 µM (inactive)
GI50 (SF-539): 3.78 µM (inactive)
GI50 (SK-MEL-28): 13.7 µM (inactive)
GI50 (SK-MEL-2): 12.2 µM (inactive)
GI50 (SK-MEL-5): 4.32 µM (inactive)
GI50 (SK-OV-3): 23.5 µM (inactive)
GI50 (SN12C): 1.77 µM (inactive)
GI50 (SNB-19): 1.74 µM (inactive)
GI50 (SNB-75): 5.28 µM (inactive)
GI50 (SW-620): 16.9 µM (inactive)
GI50 (T47D): 2.57 µM (inactive)
GI50 (TK-10): 50.9 µM (inactive)
GI50 (U-251): 1.21 µM (inactive)
GI50 (UACC-257): 6.87 µM (inactive)
GI50 (UACC-62): 12.7 µM (inactive)
GI50 (UO-31): 94.4 µM (inactive)

COC(CNC(=O)CNC(=O)c1ccc(C(F)(F)F)cc1)OC
GI50 (786-0): > 100 µM (inactive)
GI50 (A549): > 100 µM (inactive)
GI50 (ACHN): > 100 µM (inactive)
GI50 (BT-549): > 100 µM (inactive)
GI50 (CAKI-1): > 100 µM (inactive)
GI50 (CCRF-CEM): > 100 µM (inactive)
GI50 (COLO 205): > 100 µM (inactive)
GI50 (DU-145): > 100 µM (inactive)
GI50 (EKVX): > 100 µM (inactive)
GI50 (HCT-116): > 100 µM (inactive)
GI50 (HCT-15): > 100 µM
GI50 (HL-60): > 100 µM (inactive)
GI50 (HOP-92): > 100 µM (inactive)
GI50 (HT-29): > 100 µM (inactive)
GI50 (Hs-578T): > 100 µM (inactive)
GI50 (IGROV-1): > 100 µM (inactive)
GI50 (K562): > 100 µM (inactive)
GI50 (KM12): > 100 µM (inactive)
GI50 (M14): > 100 µM (inactive)
GI50 (MCF7): > 100 µM (inactive)
GI50 (MDA-MB-231): > 100 µM (inactive)
GI50 (MDA-MB-435): > 100 µM (inactive)
GI50 (MDA-N): > 100 µM (inactive)
GI50 (MOLT-4): > 100 µM (inactive)
GI50 (Malme-3M): > 100 µM (inactive)
GI50 (NCI-H226): > 100 µM (inactive)
GI50 (NCI-H23): > 100 µM (inactive)
GI50 (NCI-H460): > 100 µM (inactive)
GI50 (NCI-H522): > 100 µM (inactive)
GI50 (NCI/ADR-RES): > 100 µM (inactive)
GI50 (OVCAR-5): > 100 µM (inactive)
GI50 (OVCAR-8): > 100 µM (inactive)
GI50 (PC-3): > 100 µM (inactive)
GI50 (RPMI-8226): > 100 µM (inactive)
GI50 (RXF 393): > 100 µM (inactive)
GI50 (SF-268): > 100 µM (inactive)
GI50 (SF-295): > 100 µM (inactive)
GI50 (SF-539): > 100 µM (inactive)
GI50 (SK-MEL-2): > 100 µM (inactive)
GI50 (SK-MEL-5): > 100 µM (inactive)
GI50 (SK-OV-3): > 100 µM (inactive)
GI50 (SN12C): > 100 µM (inactive)
GI50 (SNB-19): 47.9 µM (inactive)
GI50 (SNB-75): > 100 µM (inactive)
GI50 (SR): > 100 µM (inactive)
GI50 (SW-620): > 100 µM (inactive)
GI50 (T47D): > 100 µM (inactive)
GI50 (TK-10): > 100 µM (inactive)
GI50 (U-251): > 100 µM (inactive)
GI50 (UACC-257): > 100 µM (inactive)
GI50 (UACC-62): > 100 µM (inactive)
GI50 (UO-31): > 100 µM (inactive)
